In one data set the target is CYP3A4 (Homo sapiens, UniProt P08684). Nature of the data set: (§1) Induction of CYP3A4 in human HepG2 cells at 10 uM after 24 hrs by luciferase reporter gene assay in presence of hPXR relative to control. The note with it: HepG2 cells with hPXR and CYP3A4 luciferase reporter.
For the next data set, the system named is Hepatocyte. Nature of the data set: Induction of CYP3A4 mRNA expression in human primary hepatocytes at 10 uM after 24 hrs by RT-PCR analysis.
Another data set has as its target Cytochrome P450 3A4 (Homo sapiens, UniProt P08684). Described as §1. To be noted: hepg2, 24 h, 10 µM.

Cytochrome P450 3A4, sequence (P08684 whole entry): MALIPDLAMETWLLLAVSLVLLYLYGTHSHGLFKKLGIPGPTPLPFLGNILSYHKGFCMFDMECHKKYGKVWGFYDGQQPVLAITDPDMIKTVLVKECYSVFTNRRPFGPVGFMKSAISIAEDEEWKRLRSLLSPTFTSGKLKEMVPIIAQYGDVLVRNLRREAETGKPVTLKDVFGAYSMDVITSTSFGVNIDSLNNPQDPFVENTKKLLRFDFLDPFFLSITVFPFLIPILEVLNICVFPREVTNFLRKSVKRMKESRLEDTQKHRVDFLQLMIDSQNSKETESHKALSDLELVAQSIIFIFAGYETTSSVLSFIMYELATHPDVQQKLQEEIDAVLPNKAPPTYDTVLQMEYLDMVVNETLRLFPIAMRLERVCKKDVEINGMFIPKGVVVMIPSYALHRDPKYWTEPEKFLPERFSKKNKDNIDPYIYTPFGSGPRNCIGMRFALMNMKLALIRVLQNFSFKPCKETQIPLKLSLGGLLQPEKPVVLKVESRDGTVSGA
CYP3A4, sequence (P08684 whole entry): as above

For `CC(C)C(=O)CC[C@@H](C)[C@H]1CC[C@@]2(C)[C@@H]3CC[C@H]4C(C)(C)[C@@H](O)CC[C@@]45C[C@@]35CC[C@]12C`, the fold induction at 24 h, 10 µM on CYP3A4 stood at 4. In addition, the outcome in the data set with Hepatocyte was Active.

`CC(C)C1(CC[C@@H](C)[C@H]2CC[C@@]3(C)[C@@H]4CC[C@H]5C(C)(C)[C@@H](O)CC[C@@]56C[C@@]46CC[C@]23C)CO1` (mixture of isomers): on Cytochrome P450 3A4, the result was Active.

On to `C=C(CC[C@@H](C)[C@H]1CC[C@@]2(C)[C@@H]3CC[C@H]4C(C)(C)[C@@H](O)CC[C@@]45C[C@@]35CC[C@]12C)C(C)(C)O`, for which the fold induction at 24 h, 10 µM on CYP3A4 was 4. Besides, in the data set on Hepatocyte, the outcome was Active.

In the case of `C=C(C)[C@@H]1CC[C@]2(C)CC[C@]3(C)[C@H](CC[C@@H]4[C@@]5(C)CC[C@H](O)C(C)(C)[C@@H]5CC[C@]43C)[C@@H]12` [LUPEOL], on Cytochrome P450 3A4, the Activity entry is reported as “Not Active”.

Regarding `CC(=O)O[C@H]1CC[C@]23C[C@]24CC[C@]2(C)[C@@H]([C@H](C)CCC(=O)C(C)C)CC[C@@]2(C)[C@@H]4CC[C@H]3C1(C)C`, the Activity result at Cytochrome P450 3A4 is listed as “Not Active”.

With `C=C(C)[C@@H]1CC[C@]2(C)CC[C@]3(C)[C@H](CC[C@@H]4[C@@]5(C)CC[C@@H](O)C(C)(C)[C@@H]5CC[C@]43C)[C@@H]12`, the Activity result on Cytochrome P450 3A4 is “Not Active”.

For `COC(CO)(CC[C@@H](C)[C@H]1CC[C@@]2(C)[C@@H]3CC[C@H]4C(C)(C)[C@@H](O)CC[C@@]45C[C@@]35CC[C@]12C)C(C)C` (mixture of isomers), the fold induction at 24 h, 10 µM on CYP3A4 was determined as 9.4. Further, the Activity entry in the data set with Hepatocyte is given as “Not Active”.

Turning to `CC(=O)O[C@H]1CC[C@]2(C)C3=CC=C4[C@@H]5CC(C)(C)CC[C@]5(C)CC[C@@]4(C)[C@]3(C)CC[C@H]2C1(C)C`, the Activity entry on Cytochrome P450 3A4 is on record as “Not Active”.
